From PubChem BioAssay AID1963964 (Molecular Pharmacology Branch, DTP, NCI, 2024)

System: 997726-040-R-J2-PDC tumor spheroids, viability
Experiment: Anticancer human tumor 997726-040-R-J2-PDC patient-derived squamous cell lung carcinoma cell line growth inhibition [PI3K]
Conditions: spheroids with HUVEC and MSC; for IC50: curve of first compound; for viability, T/C: stronger effect = lower value
Outline: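 Stroma-containing spheroids: tumor line, pooled-donor HUVEC, hMSC. Treatments: targeted agents with PI3K inhibitors. Dosing: clinically relevant, half-log spacing, 10 microM ceiling without known Cmax. Read-out: cell viability.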

[1] = second compound 0.00316 µM, first compound 0.0316 µM
[2] = second compound 0.00316 µM, first compound 0.1 µM
[3] = second compound 0.01 µM, first compound 0.0316 µM
[4] = second compound 0.01 µM, first compound 0.1 µM
[5] = second compound 0.0316 µM, first compound 0.0316 µM
[6] = second compound 0.0316 µM, first compound 0.1 µM
[7] = second compound 0.1 µM, first compound 0.0316 µM
[8] = second compound 0.1 µM, first compound 0.1 µM
[9] = second compound 0.316 µM, first compound 0.0316 µM
[10] = second compound 0.316 µM, first compound 0.1 µM
[11] = second compound 1 µM, first compound 0.0316 µM
[12] = second compound 1 µM, first compound 0.1 µM
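Also: spheroids exposed to compounds for seven days before readout.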

`Cn1ncc(Cl)c1-c1cc(C(=O)NC(CN)Cc2cccc(F)c2)sc1Cl` (centres undefined) + CC(Nc1ccc2c(c1)OCCn1cc(N3C(=O)OCC3C(F)F)nc1-2)C(N)=O was tested, and the IC50 (second compound 0.00316 µM) was 82.7 nM, the IC50 (second compound 0.01 µM) was 83 nM and the IC50 (second compound 0.0316 µM) was 33.1 nM. The IC50 (second compound 0.1 µM) was under 31.6 nM, the IC50 (second compound 0.316 µM) was under 31.6 nM and the IC50 (second compound 1 µM) was under 31.6 nM. It also gave a viability, T/C [1] of 75.1%, a viability, T/C [2] of 45.4% and a viability, T/C (second compound 0.00316 µM, first compound 0.316 µM) of 20.1%. It also gave a viability, T/C (second compound 0.00316 µM, first compound 1 µM) of 13.6%, a viability, T/C (second compound 0.00316 µM, first compound 3.16 µM) of 10.8% and a viability, T/C (second compound 0.00316 µM, first compound 10 µM) of 7.43%. It also gave a viability, T/C [3] of 62.8%, a viability, T/C [4] of 48.7% and a viability, T/C (second compound 0.01 µM, first compound 0.316 µM) of 21.5%. The viability, T/C (second compound 0.01 µM, first compound 1 µM) was 14.8%, the viability, T/C (second compound 0.01 µM, first compound 3.16 µM) was 8.36% and the viability, T/C (second compound 0.01 µM, first compound 10 µM) was 5.21%. It also gave a viability, T/C [5] of 50.1%, a viability, T/C [6] of 39.8% and a viability, T/C (second compound 0.0316 µM, first compound 0.316 µM) of 21%. The viability, T/C (second compound 0.0316 µM, first compound 1 µM) was 12%, the viability, T/C (second compound 0.0316 µM, first compound 3.16 µM) was 7.58% and the viability, T/C (second compound 0.0316 µM, first compound 10 µM) was 3.65%. For the same molecule, the viability, T/C [7] was 41%, the viability, T/C [8] was 32.6% and the viability, T/C (second compound 0.1 µM, first compound 0.316 µM) was 19.7%. For the same molecule, the viability, T/C (second compound 0.1 µM, first compound 1 µM) was 11.2%, the viability, T/C (second compound 0.1 µM, first compound 3.16 µM) was 6.59% and the viability, T/C (second compound 0.1 µM, first compound 10 µM) was 3.25%. For the same molecule, the viability, T/C [9] was 32.3%, the viability, T/C [10] was 25.9% and the viability, T/C (second compound 0.316 µM, first compound 0.316 µM) was 15.7%. The viability, T/C (second compound 0.316 µM, first compound 1 µM) was 11.2%, the viability, T/C (second compound 0.316 µM, first compound 3.16 µM) was 5.81% and the viability, T/C (second compound 0.316 µM, first compound 10 µM) was 2.34%. The viability, T/C [11] was 24%, the viability, T/C [12] was 23.5% and the viability, T/C (second compound 1 µM, first compound 0.316 µM) was 13.6%. It also gave a viability, T/C (second compound 1 µM, first compound 1 µM) of 9.98%, a viability, T/C (second compound 1 µM, first compound 3.16 µM) of 6.08% and a viability, T/C (second compound 1 µM, first compound 10 µM) of 2.69%.
With `Cn1ncnc1[C@H]1c2n[nH]c(=O)c3cc(F)cc(c23)N[C@@H]1c1ccc(F)cc1` + CC(Nc1ccc2c(c1)OCCn1cc(N3C(=O)OCC3C(F)F)nc1-2)C(N)=O the IC50 (second compound 0.00316 µM) was over 100 nM, the IC50 (second compound 0.01 µM) was over 100 nM and the IC50 (second compound 0.0316 µM) was over 100 nM. For the same molecule, the IC50 (second compound 0.1 µM) was under 0.316 nM, the IC50 (second compound 0.316 µM) was under 0.316 nM and the IC50 (second compound 1 µM) was under 0.316 nM. It also gave a viability, T/C (second compound 0.00316 µM, first compound 0.000316 µM) of 84.4%, a viability, T/C (second compound 0.00316 µM, first compound 0.001 µM) of 99.1% and a viability, T/C (second compound 0.00316 µM, first compound 0.00316 µM) of 95.7%. The viability, T/C (second compound 0.00316 µM, first compound 0.01 µM) was 87.5%, the viability, T/C [1] was 99.7% and the viability, T/C [2] was 89.7%. It also gave a viability, T/C (second compound 0.01 µM, first compound 0.000316 µM) of 89.6%, a viability, T/C (second compound 0.01 µM, first compound 0.001 µM) of 92.4% and a viability, T/C (second compound 0.01 µM, first compound 0.00316 µM) of 75.9%. For the same molecule, the viability, T/C (second compound 0.01 µM, first compound 0.01 µM) was 71.4%, the viability, T/C [3] was 84.3% and the viability, T/C [4] was 75.6%. It also gave a viability, T/C (second compound 0.0316 µM, first compound 0.000316 µM) of 63.2%, a viability, T/C (second compound 0.0316 µM, first compound 0.001 µM) of 72.9% and a viability, T/C (second compound 0.0316 µM, first compound 0.00316 µM) of 66.2%. The viability, T/C (second compound 0.0316 µM, first compound 0.01 µM) was 71.5%, the viability, T/C [5] was 70.2% and the viability, T/C [6] was 60.2%. It also gave a viability, T/C (second compound 0.1 µM, first compound 0.000316 µM) of 49.4%, a viability, T/C (second compound 0.1 µM, first compound 0.001 µM) of 39.8% and a viability, T/C (second compound 0.1 µM, first compound 0.00316 µM) of 43.6%. The viability, T/C (second compound 0.1 µM, first compound 0.01 µM) was 45.4%, the viability, T/C [7] was 41.8% and the viability, T/C [8] was 39%. It also gave a viability, T/C (second compound 0.316 µM, first compound 0.000316 µM) of 31.2%, a viability, T/C (second compound 0.316 µM, first compound 0.001 µM) of 36% and a viability, T/C (second compound 0.316 µM, first compound 0.00316 µM) of 32.4%. For the same molecule, the viability, T/C (second compound 0.316 µM, first compound 0.01 µM) was 32.4%, the viability, T/C [9] was 33.4% and the viability, T/C [10] was 30.9%. It also gave a viability, T/C (second compound 1 µM, first compound 0.000316 µM) of 27.5%, a viability, T/C (second compound 1 µM, first compound 0.001 µM) of 26.7% and a viability, T/C (second compound 1 µM, first compound 0.00316 µM) of 26.6%. The viability, T/C (second compound 1 µM, first compound 0.01 µM) was 28.9%, the viability, T/C [11] was 31.1% and the viability, T/C [12] was 28.8%.
